According to patent US5216005A, “Immunosuppressive analogues and derivatives of succinylacetone” (priority 1990, dated 1993):

Legend:
[1] = viability of peripheral blood lymphocytes with or without PHA, trypan blue exclusion; type: cell-based, human; details: human, peripheral blood lymphocytes; for viability at 2200 µM: 2.2 mM; for viability at 6700 µM: 6.7 mM; for viability at 20000 µM: 20 mM
Protocol: (§1) Viability was determined using the trypan blue exclusion method well known in the art. […] The assays were conducted in duplicate wherein peripheral blood lymphocytes were isolated from two separate individuals, and then treated with or without phytohemagglutinin in the presence of various concentrations of the appropriate succinylacetone derivative.

[2] = tested on: peripheral blood lymphocytes; experiment: as above; type: cell-based, human
Protocol: as §1

[3] = tested on: IFN-γ (human lymphoid cells); experiment: IFN-γ production in primary mixed lymphocyte reaction (WISH cells/EMC virus assay); type: cell-based; parameters: IFN-γ: unit not given here; details: for IFN-γ: 1° MLR
Protocol: Derivatives of succinylacetone were tested for immunosuppressive activity in several different types of assay systems. The first consisted of measuring the amounts of interleukin-2 (IL-2), and interferon-γ (IFN-γ) produced by human lymphoid cells in a mixed lymphocyte reaction. Low levels of these molecules in the reaction mixture indicate that the immune system is being suppressed by the subject succinylacetone derivatives.
IFN-γ was determined by measuring the amount of protection conveyed on human WISH cells against the cytopathic effects of encephalomyocarditis virus (EMC). This assay is described by I. A. Braude, J. of Immunol. Methods 63:237 (1983). Both publications are hereby incorporated by reference.
The mixed lymphocyte reaction assay can be carried out by techniques well known to those skilled in the art. L. Hudson and F. C. Huy, Practical Immunology, p. 260, Blackwell Scientific Publications (1976). Briefly this consists of isolating lymphocytes from human peripheral blood by standard density gradient centrifugation techniques from two separate individuals. Approximately 2×10^5 lymphocytes of each individual are combined to yield a total of 4×10^5 lymphocytes per culture. All procedures are carried out under sterile conditions, and the lymphocytes are isolated and kept in physiologically compatible solutions. To the mixture of lymphocytes is added a desired amount of an appropriate succinylacetone derivative, and after different times an aliquot of the mixture is removed and assayed for IL-2 or IFN-γ, or ^3 H-T is measured.

SMILES: COC(=O)CCC(=O)CC(C)=O [Succinylacetone Methyl Ester, methyl 4-6-dioxoheptanoate]
- viability ([1]; between 2.2 mM and 733 μM): ~100%
- viability at 3 µM ([1]; first individual, (+) PHA): 100%
- viability at 9 µM ([1]; first individual, (+) PHA): 100%
- viability at 27 µM ([1]; first individual, (+) PHA): 97%
- viability at 81 µM ([1]; first individual, (+) PHA): 96%
- viability at 244 µM ([1]; first individual, (+) PHA): 97%
- viability at 733 µM ([1]; first individual, (+) PHA): 90%
- viability at 2200 µM ([1]; first individual, (+) PHA): 89%
- viability at 6700 µM ([1]; first individual, (+) PHA): 8%
- viability at 20000 µM ([1]; first individual, (+) PHA): 0%
- viability at 3 µM ([1]; first individual, (-) PHA): 100%
- viability at 9 µM ([1]; first individual, (-) PHA): 100%
- viability at 27 µM ([1]; first individual, (-) PHA): 100%
- viability at 81 µM ([1]; first individual, (-) PHA): 100%
- viability at 244 µM ([1]; first individual, (-) PHA): 100%
- viability at 733 µM ([1]; first individual, (-) PHA): 96%
- viability at 2200 µM ([1]; first individual, (-) PHA): 94%
- viability at 6700 µM ([1]; first individual, (-) PHA): 7%
- viability at 20000 µM ([1]; first individual, (-) PHA): 0%
- viability at 3 µM ([1]; second individual, (+) PHA): 100%
- viability at 9 µM ([1]; second individual, (+) PHA): 100%
- viability at 27 µM ([1]; second individual, (+) PHA): 94%
- viability at 81 µM ([1]; second individual, (+) PHA): 98%
- viability at 244 µM ([1]; second individual, (+) PHA): 96%
- viability at 733 µM ([1]; second individual, (+) PHA): 94%
- viability at 2200 µM ([1]; second individual, (+) PHA): 93%
- viability at 6700 µM ([1]; second individual, (+) PHA): 6%
- viability at 20000 µM ([1]; second individual, (+) PHA): 0%
- viability at 3 µM ([1]; second individual, (-) PHA): 100%
- viability at 9 µM ([1]; second individual, (-) PHA): 100%
- viability at 27 µM ([1]; second individual, (-) PHA): 100%
- viability at 81 µM ([1]; second individual, (-) PHA): 100%
- viability at 244 µM ([1]; second individual, (-) PHA): 98%
- viability at 733 µM ([1]; second individual, (-) PHA): 95%
- viability at 2200 µM ([1]; second individual, (-) PHA): 94%
- viability at 6700 µM ([1]; second individual, (-) PHA): 4%
- viability at 20000 µM ([1]; second individual, (-) PHA): 0%
- viability ([2]; about 6.7 mM): little viability
- Cells/ml ([2]; first individual, (+) PHA, 3 μM): 0.48 X 10^6 Cells/ml
- Cells/ml ([2]; first individual, (+) PHA, 9 μM): 0.32 X 10^6 Cells/ml
- Cells/ml ([2]; first individual, (+) PHA, 27 μM): 0.37 X 10^6 Cells/ml
- Cells/ml ([2]; first individual, (+) PHA, 81 μM): 0.4 X 10^6 Cells/ml
- Cells/ml ([2]; first individual, (+) PHA, 244 μM): 0.38 X 10^6 Cells/ml
- Cells/ml ([2]; first individual, (+) PHA, 733 μM): 0.4 X 10^6 Cells/ml
- Cells/ml ([2]; first individual, (+) PHA, 2.2 mM): 0.3 X 10^6 Cells/ml
- Cells/ml ([2]; first individual, (+) PHA, 6.7 mM): 0.13 X 10^6 Cells/ml
- Cells/ml ([2]; first individual, (-) PHA, 3 μM): 0.60 X 10^6 Cells/ml
- Cells/ml ([2]; first individual, (-) PHA, 9 μM): 0.36 X 10^6 Cells/ml
- Cells/ml ([2]; first individual, (-) PHA, 27 μM): 0.60 X 10^6 Cells/ml
- Cells/ml ([2]; first individual, (-) PHA, 81 μM): 0.37 X 10^6 Cells/ml
- Cells/ml ([2]; first individual, (-) PHA, 244 μM): 0.35 X 10^6 Cells/ml
- Cells/ml ([2]; first individual, (-) PHA, 733 μM): 0.34 X 10^6 Cells/ml
- Cells/ml ([2]; first individual, (-) PHA, 2.2 mM): 0.36 X 10^6 Cells/ml
- Cells/ml ([2]; first individual, (-) PHA, 6.7 mM): 0.15 X 10^6 Cells/ml
- Cells/ml ([2]; second individual, (+) PHA, 3 μM): 0.50 X 10^6 Cells/ml
- Cells/ml ([2]; second individual, (+) PHA, 9 μM): 0.50 X 10^6 Cells/ml
- Cells/ml ([2]; second individual, (+) PHA, 27 μM): 0.40 X 10^6 Cells/ml
- Cells/ml ([2]; second individual, (+) PHA, 81 μM): 0.55 X 10^6 Cells/ml
- Cells/ml ([2]; second individual, (+) PHA, 244 μM): 0.52 X 10^6 Cells/ml
- Cells/ml ([2]; second individual, (+) PHA, 733 μM): 0.39 X 10^6 Cells/ml
- Cells/ml ([2]; second individual, (+) PHA, 2.2 mM): 0.42 X 10^6 Cells/ml
- Cells/ml ([2]; second individual, (+) PHA, 6.7 mM): 0.24 X 10^6 Cells/ml
- Cells/ml ([2]; second individual, (-) PHA, 3 μM): 0.5 X 10^6 Cells/ml
- Cells/ml ([2]; second individual, (-) PHA, 9 μM): 0.51 X 10^6 Cells/ml
- Cells/ml ([2]; second individual, (-) PHA, 27 μM): 0.43 X 10^6 Cells/ml
- Cells/ml ([2]; second individual, (-) PHA, 81 μM): 0.53 X 10^6 Cells/ml
- Cells/ml ([2]; second individual, (-) PHA, 244 μM): 0.46 X 10^6 Cells/ml
- Cells/ml ([2]; second individual, (-) PHA, 733 μM): 0.48 X 10^6 Cells/ml
- Cells/ml ([2]; second individual, (-) PHA, 2.2 mM): 0.42 X 10^6 Cells/ml
- Cells/ml ([2]; second individual, (-) PHA, 6.7 mM): 0.23 X 10^6 Cells/ml
- IFN-γ ([3]; Exp I, 3 μM): 2558
- IFN-γ ([3]; Exp I, 9 μM): 1860
- IFN-γ ([3]; Exp I, 27 μM): 2713
- IFN-γ ([3]; Exp I, 81 μM): 1628
- IFN-γ ([3]; Exp I, 244 μM): 1575
- IFN-γ ([3]; Exp I, 733 μM): 1890
- IFN-γ ([3]; Exp I, 2.2 mM): 788
- IFN-γ ([3]; Exp I, 6.7 mM): < 630
- IFN-γ ([3]; Exp I, 20 mM): < 630
- IFN-γ ([3]; Exp II, 3 μM): 1313
- IFN-γ ([3]; Exp II, 9 μM): 1000
- IFN-γ ([3]; Exp II, 27 μM): 1032
- IFN-γ ([3]; Exp II, 81 μM): 1094
- IFN-γ ([3]; Exp II, 244 μM): 938
- IFN-γ ([3]; Exp II, 733 μM): 688
- IFN-γ ([3]; Exp II, 2.2 mM): < 375
- IFN-γ ([3]; Exp II, 6.7 mM): < 375
- IFN-γ ([3]; Exp II, 20 mM): < 375
- IC50 ([3]; Homo sapiens, Lymphocyte, primary MLR, read-out: concentration that inhibits IFN-γ production by about 50%): ~733 µM
